Read-outs that look alike come from different tables or passages of the source.
How the values were obtained:
hSSTR-4 = target: T1, hSSTR-4 (Homo sapiens, UniProt P31391); test: Somatostatin receptor radioligand binding, hSSTR-4 (CHO-K1 membranes); conditions: read-out: Ki hSSTR4 ± (SEM)
T1 construct: expressed in transfected cells; host or cells: CHO-K1
Description: (§2) For the hSSTR-1, hSSTR-3, and hSSTR-4 assays, aliquots of the membrane preparations were incubated for 90 minutes at 25° C. with 0.05 nM [^125I-Tyr11]SRIF-14 in 50 mM HEPES (pH 7.4) buffer containing 0.2% BSA and 5 mM MgCl2. The final assay volume was 0.3 ml. For the hSSTR-2 and hSSTR-5 assays, [^125I]-[4-(2-hydroxyethyl)]-1-piperazinylacetyl-D-Phe-c(Cys-Tyr-D-Trp-Lys-Abu-Cys)-Thr-NH2 (0.05 nM) and [^125I]-D-Phe-c(Cys-Tyr-D-Trp-Lys-Val-Cys)-Thr-NH2 were employed as the radioligands, respectively.

hSSTR-1 = target: T2, hSSTR-1 (Homo sapiens, UniProt P30872); test: Somatostatin receptor radioligand binding, hSSTR-1 (CHO-K1 membranes); conditions: read-out: Ki hSSTR1 ± (SEM)
T2 construct: expressed in transfected cells; host or cells: CHO-K1
T2 sequence (P30872 whole entry): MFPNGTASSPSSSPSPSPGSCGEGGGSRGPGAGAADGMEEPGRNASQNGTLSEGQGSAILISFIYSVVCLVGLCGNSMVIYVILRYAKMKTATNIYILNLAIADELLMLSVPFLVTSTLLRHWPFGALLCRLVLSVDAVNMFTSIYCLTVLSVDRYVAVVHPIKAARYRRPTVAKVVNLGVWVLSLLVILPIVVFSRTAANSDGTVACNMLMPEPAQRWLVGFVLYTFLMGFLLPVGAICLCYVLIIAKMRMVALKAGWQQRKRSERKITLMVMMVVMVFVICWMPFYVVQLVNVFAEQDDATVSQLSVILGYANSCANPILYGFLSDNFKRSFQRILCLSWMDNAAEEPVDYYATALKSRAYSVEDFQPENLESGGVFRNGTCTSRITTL
Description: Membranes for in vitro receptor binding assays were obtained by homogenizing (Polytron setting 6, 15 sec) CHO-K1 cells expressing human somatostatin receptor subtypes hSSTR-1, hSSTR-2, hSSTR-3, hSSTR-4 or hSSTR-5 in ice-cold 50 mM Tris-HCl. The homogenized cells were centrifuged twice at 39,000 g for 10 minutes with an intermediate resuspension in fresh buffer. The final pellets were resuspended in 10 mM Tris-HCl to prepare the cell membrane homogenate for use in the binding assay.
The final assay volume was 0.3 ml.
The cell membrane homogenate was incubated with the radioligands for 90 minutes at 25° C. The incubations were terminated by rapid filtration through GF/C filters pre-soaked in 0.3% polyethylenimine using a Brandel® filtration manifold (Gaithersberg, Md., U.S.A.). Each tube and filter was washed three times with 5-ml aliquots of ice-cold buffer. Specific binding was defined as the total radioligand bound minus that bound in the presence of 1000 nM SRIF-14 (for hSSTR-1, hSSTR-3, hSSTR-4 or hSSTR-5), or 1000 nM DPhe-c(Cys-Tyr-D-Trp-Lys-Abu-Cys)-Thr-NH2 for hSSTR-2.

[1] = Half-life determination in human plasma (LC-MS); type: in vitro ADME; conditions: 37° C.
Description: (§1) Samples containing approximately 50 μg/ml up to and including approximately 500 μg/ml of test compound according to Formula IA or IB or II was added to 450 μl human or mouse plasma, vortexed briefly and incubated at 37° C. At various time intervals, e.g., 0, 0.5, 1, 2, 4, 6, 8, 24, 36 and 48 hours, 50 μl of the compound-plasma mixture was added to 150 μl acetonitrile in a microcentrifuge tube. The mixture was vortexed, centrifuged for 5 minutes at 10K RPM, and 135 μl of supernatant was transferred to an injection vial. The recovered supernatant was analyzed by using a liquid chromatography-mass spectrophotometer system (LC-MS) consisting of a Finnigan Deca XP® mass spectrometer with an ESI probe at the positive ion mode. HPLC separation was carried out on a Luna 3μ C8 (2)® 3×50 mm column with a gradient decreasing from 100% A to 80% B for 10 minutes at a flow rate of 0.25 ml/min. Buffer A was 0.1% acetic acid in water and buffer B was 0.1% acetic acid acetonitrile.

hSSTR-3 = target: T3, hSSTR-3 (Homo sapiens, UniProt P32745); test: Somatostatin receptor radioligand binding, hSSTR-3 (CHO-K1 membranes); conditions: read-out: Ki hSSTR3 ± (SEM)
T3 construct: expressed in transfected cells; host or cells: CHO-K1
T3 sequence (P32745 whole entry): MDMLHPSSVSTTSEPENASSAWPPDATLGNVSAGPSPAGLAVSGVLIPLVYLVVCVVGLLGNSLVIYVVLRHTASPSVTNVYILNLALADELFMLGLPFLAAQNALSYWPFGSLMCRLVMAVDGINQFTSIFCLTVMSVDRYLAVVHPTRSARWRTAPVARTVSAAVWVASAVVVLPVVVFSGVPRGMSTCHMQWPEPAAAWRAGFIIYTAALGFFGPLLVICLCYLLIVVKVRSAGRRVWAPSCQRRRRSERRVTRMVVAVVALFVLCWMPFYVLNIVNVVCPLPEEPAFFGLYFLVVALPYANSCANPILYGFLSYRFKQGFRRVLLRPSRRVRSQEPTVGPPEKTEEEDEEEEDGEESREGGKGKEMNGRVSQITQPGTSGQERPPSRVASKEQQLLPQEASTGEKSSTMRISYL
Description: as §2

[2] = Half-life determination in mouse plasma (LC-MS); type: in vitro ADME; conditions: 37° C.
Description: as §1

[3] = [125I-Tyr11]SRIF-14, value of 1000 indicates at least 1000

T1 sequence (P31391 whole entry): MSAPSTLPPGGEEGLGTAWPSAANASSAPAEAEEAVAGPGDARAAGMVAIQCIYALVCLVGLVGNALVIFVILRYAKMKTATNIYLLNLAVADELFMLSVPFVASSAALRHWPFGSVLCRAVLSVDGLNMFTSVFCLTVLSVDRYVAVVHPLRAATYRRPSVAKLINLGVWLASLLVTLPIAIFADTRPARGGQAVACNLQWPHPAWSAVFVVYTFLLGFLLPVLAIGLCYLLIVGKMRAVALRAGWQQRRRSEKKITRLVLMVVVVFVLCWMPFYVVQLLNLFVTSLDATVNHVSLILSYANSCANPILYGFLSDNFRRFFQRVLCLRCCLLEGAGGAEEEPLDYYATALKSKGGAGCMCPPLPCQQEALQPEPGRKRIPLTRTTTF

## CC[C@@H]1NC(=O)[C@H](CCCCN)NC(=O)[C@@H](Cc2c[nH]c3ccccc23)NC(=O)[C@H](Cc2ccc(O)cc2)NC(=O)[C@@H](NC(=O)[C@@H](Cc2ccccc2)NC(=O)CN2CCN(CCNC(=O)COCCOCCNC(=O)COCCOCCNC(=O)COCCOCCNC(=O)COCCOCCNC(=O)CCC(=O)N[C@@H](CCCNC(=N)N)C(=O)O[C@]3(CC)C(=O)OCc4c3cc3n(c4=O)Cc4cc5ccccc5nc4-3)CC2)CSSC[C@@H](C(=O)N[C@H](C(N)=O)[C@@H](C)O)NC1=O [Example 7, Camptothecin-rvArg-Suc-(Doc)4-Aepa-D-Phe-c(Cys-Tyr-D-Trp-Lys-Abu-Cys)-Thr-NH2]
hSSTR-4
  Ki: ≥ 1000 nM
hSSTR-1
  Ki: ≥ 1000 nM
[1]
  half-life: 1.5 h
hSSTR-3
  Ki: 479 nM
[2]
  half-life: 1.2 h

## Camptothecin-rvD-Asp-Suc-(Doc)4-Aepa-D-Phe-c(Cys-Tyr-D-Trp-Lys-Abu-Cys)-Thr-NH2 Camptothecin-rvAsp-Suc-(Doc)4-Aepa-D-Phe-c(Cys-Tyr-D-Trp-Lys-Abu-Cys)-Thr-NH2 [5A′]
hSSTR-4; [3]
  Ki: ≥ 1000 nM
hSSTR-1; [3]
  Ki: ≥ 1000 nM
hSSTR-3; [3]
  Ki: ≥ 1000 nM

## CC[C@@H]1NC(=O)[C@H](CCCCN)NC(=O)[C@@H](Cc2c[nH]c3ccccc23)NC(=O)[C@H](Cc2ccc(O)cc2)NC(=O)[C@@H](NC(=O)[C@@H](Cc2ccccc2)NC(=O)CN2CCN(CCNC(=O)COCCOCCNC(=O)COCCOCCNC(=O)COCCOCCNC(=O)COCCOCCNC(=O)CCC(=O)N[C@@H](CNC(=O)OCc3ccccc3)C(=O)O[C@]3(CC)C(=O)OCc4c3cc3n(c4=O)Cc4cc5ccccc5nc4-3)CC2)CSSC[C@@H](C(=O)N[C@H](C(N)=O)[C@@H](C)O)NC1=O [Example 8, Camptothecin-rvDap(Z)-Suc-(Doc)4-Aepa-D-Phe-c(Cys-Tyr-D-Trp-Lys-Abu-Cys)-Thr-NH2]
hSSTR-4
  Ki: ≥ 1000 nM
hSSTR-1
  Ki: ≥ 1000 nM
[1]
  half-life: 0.7 h
[2]
  half-life: 2.2 h

## CC[C@@H]1NC(=O)[C@H](CCCCN)NC(=O)[C@@H](Cc2c[nH]c3ccccc23)NC(=O)[C@H](Cc2ccc(O)cc2)NC(=O)[C@@H](NC(=O)[C@@H](Cc2ccccc2)NC(=O)CN2CCN(CCNC(=O)COCCOCCNC(=O)COCCOCCNC(=O)COCCOCCNC(=O)COCCOCCNC(=O)CCC(=O)N[C@@H](C(=O)O[C@]3(CC)C(=O)OCc4c3cc3n(c4=O)Cc4cc5ccccc5nc4-3)C(C)C)CC2)CSSC[C@@H](C(=O)N[C@H](C(N)=O)[C@@H](C)O)NC1=O [Example 13, Camptothecin-rvD-Val-Suc-(Doc)4-Aepa-D-Phe-c(Cys-Tyr-D-Trp-Lys-Abu-Cys)-Thr-NH2]
hSSTR-4
  Ki: ≥ 1000 nM
hSSTR-1
  Ki: ≥ 1000 nM
[1]
  half-life: 0.3 h
[2]
  half-life: 7.7 h

## CC[C@@H]1NC(=O)[C@H](CCCCN)NC(=O)[C@@H](Cc2c[nH]c3ccccc23)NC(=O)[C@H](Cc2ccc(O)cc2)NC(=O)[C@@H](NC(=O)[C@@H](Cc2ccccc2)NC(=O)CN2CCN(CCNC(=O)COCCOCCNC(=O)COCCOCCNC(=O)COCCOCCNC(=O)COCCOCCNC(=O)CCC(=O)N[C@H](CNC(=O)OCc3ccccc3)C(=O)O[C@]3(CC)C(=O)OCc4c3cc3n(c4=O)Cc4cc5ccccc5nc4-3)CC2)CSSC[C@@H](C(=O)N[C@H](C(N)=O)[C@@H](C)O)NC1=O [Example 9, Camptothecin-rvD-Dap(Z)-Suc-(Doc)4-Aepa-D-Phe-c(Cys-Tyr-D-Trp-Lys-Abu-Cys)-Thr-NH2]
hSSTR-4
  Ki: ≥ 1000 nM
hSSTR-1
  Ki: ≥ 1000 nM
[1]
  half-life: 0.7 h
[2]
  half-life: 1.7 h

## CC[C@@H]1NC(=O)[C@H](CCCCN)NC(=O)[C@@H](Cc2c[nH]c3ccccc23)NC(=O)[C@H](Cc2ccc(O)cc2)NC(=O)[C@@H](NC(=O)[C@@H](Cc2ccccc2)NC(=O)CN2CCN(CCNC(=O)COCCOCCNC(=O)COCCOCCNC(=O)COCCOCCNC(=O)COCCOCCNC(=O)CCC(=O)N[C@H](C(=O)O[C@]3(CC)C(=O)OCc4c3cc3n(c4=O)Cc4cc5ccccc5nc4-3)C(C)C)CC2)CSSC[C@@H](C(=O)N[C@H](C(N)=O)[C@@H](C)O)NC1=O [Example 15, Camptothecin-rvVal-Suc-(Doc)4-Aepa-D-Phe-c(Cys-Tyr-D-Trp-Lys-Abu-Cys)-Thr-NH2]
hSSTR-4
  Ki: ≥ 1000 nM
hSSTR-1
  Ki: ≥ 1000 nM
[1]
  half-life: 0.4 h
[2]
  half-life: 5 h

Source: patent US8236762B2, “Peptide-cytotoxic conjugates” (IPSEN Pharma S.A.S., priority 2006, dated 2012)
